System: 565726-208-R1-J5-PDC complex spheroids, growth inhibition
Test: Anticancer human tumor 565726-208-R1-J5-PDC patient-derived pancreatic adenocarcinoma cell line growth inhibition [RAS]
Conditions: for IC50: curve of first compound; for viability, T/C: stronger effect = lower value; active = viability on the fitted dose curve at most 10% of control; inactive = the rest
In short: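 Agents were tested in combination matrices in half-log decrements from a top concentration at or near clinical Cmax (10 microM if undetermined). Targets were multi-cell spheroids of tumour lines plus HUVEC and MSC stromal cells.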

[1] = second compound 0.000949 µM, first compound 0.0316 µM
[2] = second compound 0.000949 µM, first compound 0.1 µM
[3] = second compound 0.000949 µM, first compound 0.316 µM
[4] = second compound 0.000949 µM, first compound 1 µM
[5] = second compound 0.000949 µM, first compound 3.16 µM
[6] = second compound 0.000949 µM, first compound 10 µM
[7] = second compound 0.003 µM, first compound 0.0316 µM
[8] = second compound 0.003 µM, first compound 0.1 µM
[9] = second compound 0.003 µM, first compound 0.316 µM
[10] = second compound 0.003 µM, first compound 1 µM
[11] = second compound 0.003 µM, first compound 3.16 µM
[12] = second compound 0.003 µM, first compound 10 µM
[13] = second compound 0.00949 µM, first compound 0.0316 µM
[14] = second compound 0.00949 µM, first compound 0.1 µM
[15] = second compound 0.00949 µM, first compound 0.316 µM
[16] = second compound 0.00949 µM, first compound 1 µM
[17] = second compound 0.00949 µM, first compound 3.16 µM
[18] = second compound 0.00949 µM, first compound 10 µM
[19] = second compound 0.03 µM, first compound 0.0316 µM
[20] = second compound 0.03 µM, first compound 0.1 µM
[21] = second compound 0.03 µM, first compound 0.316 µM
[22] = second compound 0.03 µM, first compound 1 µM
[23] = second compound 0.03 µM, first compound 3.16 µM
[24] = second compound 0.03 µM, first compound 10 µM
[25] = second compound 0.0949 µM, first compound 0.0316 µM
[26] = second compound 0.0949 µM, first compound 0.1 µM
[27] = second compound 0.0949 µM, first compound 0.316 µM
[28] = second compound 0.0949 µM, first compound 1 µM
[29] = second compound 0.0949 µM, first compound 3.16 µM
[30] = second compound 0.0949 µM, first compound 10 µM
[31] = second compound 0.3 µM, first compound 0.0316 µM
[32] = second compound 0.3 µM, first compound 0.1 µM
[33] = second compound 0.3 µM, first compound 0.316 µM
[34] = second compound 0.3 µM, first compound 1 µM
[35] = second compound 0.3 µM, first compound 3.16 µM
[36] = second compound 0.3 µM, first compound 10 µM
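Note: spheroids exposed to compounds for seven days before readout.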
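Throughout, for viability, T/C: 100% = DMSO vehicle control viability.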

CC1(C)CCC(Nc2ncc(C(F)(F)F)c(-c3c[nH]c4c(P(C)(C)=O)c(C#N)ccc34)n2)CN1 (stereo unspecified) + CCn1c(-c2cc(N3CCN(C)CC3)cnc2C(C)OC)c2c3cc(ccc31)-c1csc(n1)CC(NC(=O)C1CC1C)C(=O)N1CCCC(N1)C(=O)OCC(C)(C)C2
inactive: viability, T/C (second compound 0.000949 µM, first compound 0.000949 µM) 54.4% | viability, T/C (second compound 0.000949 µM, first compound 0.003 µM) 41.2% | viability, T/C (second compound 0.000949 µM, first compound 0.00949 µM) 30.8% | viability, T/C (second compound 0.000949 µM, first compound 0.03 µM) 31.5% | viability, T/C (second compound 0.000949 µM, first compound 0.0949 µM) 31.6% | viability, T/C (second compound 0.000949 µM, first compound 0.3 µM) 34.4% | viability, T/C (second compound 0.003 µM, first compound 0.000949 µM) 46.8% | viability, T/C (second compound 0.003 µM, first compound 0.003 µM) 40.3% | viability, T/C (second compound 0.003 µM, first compound 0.00949 µM) 38.4% | viability, T/C (second compound 0.003 µM, first compound 0.03 µM) 28.9% | viability, T/C (second compound 0.003 µM, first compound 0.0949 µM) 32.6% | viability, T/C (second compound 0.003 µM, first compound 0.3 µM) 29.9% | viability, T/C (second compound 0.00949 µM, first compound 0.000949 µM) 37.3% | viability, T/C (second compound 0.00949 µM, first compound 0.003 µM) 36.1% | viability, T/C (second compound 0.00949 µM, first compound 0.00949 µM) 30.4% | viability, T/C (second compound 0.00949 µM, first compound 0.03 µM) 30.7% | viability, T/C (second compound 0.00949 µM, first compound 0.0949 µM) 28.1% | viability, T/C (second compound 0.00949 µM, first compound 0.3 µM) 28.7% | viability, T/C (second compound 0.03 µM, first compound 0.000949 µM) 30% | viability, T/C (second compound 0.03 µM, first compound 0.003 µM) 30.9% | viability, T/C (second compound 0.03 µM, first compound 0.00949 µM) 26.4% | viability, T/C (second compound 0.03 µM, first compound 0.03 µM) 25.5% | viability, T/C (second compound 0.03 µM, first compound 0.0949 µM) 28.5% | viability, T/C (second compound 0.03 µM, first compound 0.3 µM) 26% | viability, T/C (second compound 0.0949 µM, first compound 0.000949 µM) 24.8% | viability, T/C (second compound 0.0949 µM, first compound 0.003 µM) 27.1% | viability, T/C (second compound 0.0949 µM, first compound 0.00949 µM) 26.1% | viability, T/C (second compound 0.0949 µM, first compound 0.03 µM) 24% | viability, T/C (second compound 0.0949 µM, first compound 0.0949 µM) 26.8% | viability, T/C (second compound 0.0949 µM, first compound 0.3 µM) 23.8% | viability, T/C (second compound 0.3 µM, first compound 0.000949 µM) 22.5% | viability, T/C (second compound 0.3 µM, first compound 0.003 µM) 23.4% | viability, T/C (second compound 0.3 µM, first compound 0.00949 µM) 22.8% | viability, T/C (second compound 0.3 µM, first compound 0.03 µM) 22.4% | viability, T/C (second compound 0.3 µM, first compound 0.0949 µM) 25.4% | viability, T/C (second compound 0.3 µM, first compound 0.3 µM) 21.9%
< 0.949 nM: IC50 (second compound 0.003 µM) | IC50 (second compound 0.00949 µM) | IC50 (second compound 0.03 µM) | IC50 (second compound 0.0949 µM) | IC50 (second compound 0.3 µM)
1.34 nM: IC50 (second compound 0.000949 µM)

CC1(O)CCCC1n1c(=O)c(C(F)F)cc2cnc(NC3CCN(S(C)(=O)=O)CC3)nc21 (stereo unspecified) + CCn1c(-c2cccnc2C(C)OC)c2c3cc(ccc31)N1CCOC(CC(NC(=O)C(C(C)C)N(C)C(=O)C3(F)CCN(C(=O)C#CC(C)(C)N(C)C)CC3)C(=O)N3CCCC(N3)C(=O)OCC(C)(C)C2)C1
2150 nM: IC50 (second compound 0.03 µM)
1650 nM: IC50 (second compound 0.3 µM)
2480 nM: IC50 (second compound 0.00949 µM)
inactive: viability, T/C [1] 89.3% | viability, T/C [2] 65.9% | viability, T/C [3] 61.5% | viability, T/C [4] 55.9% | viability, T/C [5] 48% | viability, T/C [7] 92.6% | viability, T/C [8] 66.7% | viability, T/C [9] 59.9% | viability, T/C [10] 61.9% | viability, T/C [11] 47.5% | viability, T/C [13] 87.1% | viability, T/C [14] 73.3% | viability, T/C [15] 64% | viability, T/C [16] 65.4% | viability, T/C [17] 50.4% | viability, T/C [19] 79.3% | viability, T/C [20] 70.6% | viability, T/C [21] 64.6% | viability, T/C [22] 55% | viability, T/C [23] 51.5% | viability, T/C [25] 86.3% | viability, T/C [26] 72.7% | viability, T/C [27] 53.8% | viability, T/C [28] 53% | viability, T/C [29] 49.9% | viability, T/C [30] 3.75% | viability, T/C [31] 68% | viability, T/C [32] 64.2% | viability, T/C [33] 54.3% | viability, T/C [34] 54.1% | viability, T/C [35] 45.4%
734 nM: IC50 (second compound 0.0949 µM)
active: viability, T/C [6] 4.71% | viability, T/C [12] 5.57% | viability, T/C [18] 4.99% | viability, T/C [24] 5.14% | viability, T/C [36] 3.4%
1580 nM: IC50 (second compound 0.000949 µM)
1740 nM: IC50 (second compound 0.003 µM)

CC(=O)OC12COC1CC(O)C1(C)C(=O)C(O)C3=C(C)C(OC(=O)C(O)C(NC(=O)OC(C)(C)C)c4ccccc4)CC(O)(C(OC(=O)c4ccccc4)C21)C3(C)C (stereo unspecified) + CCn1c(-c2cccnc2C(C)OC)c2c3cc(ccc31)N1CCOC(CC(NC(=O)C(C(C)C)N(C)C(=O)C3(F)CCN(C(=O)C#CC(C)(C)N(C)C)CC3)C(=O)N3CCCC(N3)C(=O)OCC(C)(C)C2)C1
inactive: viability, T/C [1] 15.9% | viability, T/C [2] 14.2% | viability, T/C [3] 15.5% | viability, T/C [4] 16.5% | viability, T/C [5] 19.8% | viability, T/C [6] 21.5% | viability, T/C [7] 17.4% | viability, T/C [8] 16.5% | viability, T/C [9] 16.2% | viability, T/C [10] 14.6% | viability, T/C [11] 19.8% | viability, T/C [12] 22.8% | viability, T/C [13] 17.3% | viability, T/C [14] 15.3% | viability, T/C [15] 15.9% | viability, T/C [16] 15.7% | viability, T/C [17] 20.1% | viability, T/C [18] 22.8% | viability, T/C [19] 16.3% | viability, T/C [20] 16.2% | viability, T/C [21] 15% | viability, T/C [22] 17% | viability, T/C [23] 21.6% | viability, T/C [24] 25.4% | viability, T/C [25] 15.3% | viability, T/C [26] 14.8% | viability, T/C [27] 13.2% | viability, T/C [28] 15.3% | viability, T/C [29] 20.2% | viability, T/C [30] 24.3% | viability, T/C [31] 14.9% | viability, T/C [32] 15.8% | viability, T/C [33] 14.4% | viability, T/C [34] 13.9% | viability, T/C [35] 17.6% | viability, T/C [36] 26.2%
< 31.6 nM: IC50 (second compound 0.000949 µM) | IC50 (second compound 0.003 µM) | IC50 (second compound 0.00949 µM) | IC50 (second compound 0.03 µM) | IC50 (second compound 0.0949 µM) | IC50 (second compound 0.3 µM)

Source: PubChem BioAssay AID2060899 (Molecular Pharmacology Branch, DTP, NCI, 2025)
